Experimental data published in patent US12577267B2, “Pyrimidine compounds for use as MAP4K1 inhibitors” (GLENMARK SPECIALITY S.A., priority 2021, dated 2026).
pIC50: −log10 of the molar value. Counter-ions that a name gives are not always drawn. Like-named read-outs stand apart in the source and are kept apart here.

Biological target: MAP4K-1 enzyme (Homo sapiens, UniProt Q92918)
Assay: FRET one step binding assay (tracer displacement)
Conditions: for % Inhibition at 1 μM / inhibition at 1 µM: 1 μM compound; for % Inhibition at 10 μM / inhibition at 10 µM: 10 μM compound; for IC50: IC50 (nM)
Experimental: This is a one step binding assay based on the binding and displacement of the labeled tracer, where compound addition is followed by addition of the anti-GST tagged europium (Eu) as the donor and Alexa Fluor-labeled tracer as the acceptor.
Test compounds were dissolved in dimethylsulfoxide (DMSO) to prepare 10.0 mM stock solutions and diluted to the desired concentration. The final concentration of DMSO in the reaction was 3% (v/v). The assay mixture was prepared by mixing 2 nM of the Eu-Anti-GST Antibody and 5 nM MAP4K-1 enzyme in the Kinase buffer containing 50 mM HEPES (pH 7.5), 10 mM MgCl2, 1 mM EGTA, 0.01% Brij-35 with or without the desired concentration of the compound. The reaction was incubated on ice for 15 min. […] After shaking for 5 min the reaction was further incubated for 1 hour at room temperature and this was kept at 4° C. and read on ARTEMIS reader as per the kit instructions (Thermo). […] The activity was calculated as percent of control reaction. IC50 values were calculated from dose response curve by nonlinear regression analysis using GraphPad Prism software.

Sequence of MAP4K-1 enzyme (Q92918 whole entry): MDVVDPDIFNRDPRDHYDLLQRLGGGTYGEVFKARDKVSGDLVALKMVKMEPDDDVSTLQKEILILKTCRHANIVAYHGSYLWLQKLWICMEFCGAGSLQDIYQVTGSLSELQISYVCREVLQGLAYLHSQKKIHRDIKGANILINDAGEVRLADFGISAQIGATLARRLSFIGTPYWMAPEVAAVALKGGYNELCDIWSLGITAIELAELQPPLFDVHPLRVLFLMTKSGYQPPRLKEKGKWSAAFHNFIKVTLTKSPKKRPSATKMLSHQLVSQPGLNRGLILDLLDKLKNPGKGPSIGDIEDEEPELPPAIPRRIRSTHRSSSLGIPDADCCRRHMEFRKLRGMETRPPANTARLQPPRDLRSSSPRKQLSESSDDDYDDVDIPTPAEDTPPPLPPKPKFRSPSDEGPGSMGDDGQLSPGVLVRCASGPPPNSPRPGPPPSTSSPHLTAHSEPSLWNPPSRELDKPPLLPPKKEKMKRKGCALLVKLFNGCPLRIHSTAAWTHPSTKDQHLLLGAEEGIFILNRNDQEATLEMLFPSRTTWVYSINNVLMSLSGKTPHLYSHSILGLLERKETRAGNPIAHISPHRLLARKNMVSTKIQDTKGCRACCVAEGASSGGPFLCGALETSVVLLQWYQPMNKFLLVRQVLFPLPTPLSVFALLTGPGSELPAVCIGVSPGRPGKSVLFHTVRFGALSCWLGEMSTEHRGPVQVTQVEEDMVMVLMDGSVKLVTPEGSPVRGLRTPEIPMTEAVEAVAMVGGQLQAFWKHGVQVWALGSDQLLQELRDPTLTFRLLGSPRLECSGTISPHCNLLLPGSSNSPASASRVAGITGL

pIC50 (read-out: IC50) | SMILES | pIC50 | % Inhibition at 1 μM | % Inhibition at 10 μM | inhibition at 1 µM | inhibition at 10 µM | IC50
 | COc1cc2c(cc1Nc1ncc(Cl)c(Nc3cc(OS(=O)(=O)F)ccc3P(C)(C)=O)n1)CN(C)C(C)C2 (single isomer, unassigned; isomer 2) [Example 36, 3-((5-Chloro-2-((6-methoxy-2,3-dimethyl-1,2,3,4-tetrahydroisoquinolin-7-yl)amino)pyrimidin-4-yl)amino)-4-(dimethylphosphoryl)phenyl sulfofluoridate dihydrochloride (Isomer 2)] | > 7.30 | 85.29% | 83.76% |  |  | 
 | COc1cc2c(cc1Nc1ncc(Cl)c(Nc3ncc(OS(=O)(=O)F)cc3P(C)(C)=O)n1)C(C)N(C)CC2 (single isomer, unassigned; isomer 1) [Example 23, 6-((5-Chloro-2-((6-methoxy-1,2-dimethyl-1,2,3,4-tetrahydroisoquinolin-7-yl)amino)pyrimidin-4-yl)amino)-5-(dimethylphosphory)pyridin-3-yl sulfofluoridate dihyrochloride (Isomer 1)] |  |  |  | 86.1% | 89.6% | 50 to 100 nM
 | CN1CCc2cc(O)c(Nc3ncc(Cl)c(Nc4ccc(OS(=O)(=O)F)cc4P(C)(C)=O)n3)cc2C1 [Example 61, 4-((5-Chloro-2-((6-hydroxy-2-methyl-1,2,3,4-tetrahydroisoquinolin-7-yl)amino)pyrimidin-4-yl)amino)-3-(dimethylphosphoryl)phenylsulfofluoridate dihydrochloride] |  |  |  | 89.6% | 89.7% | < 50 nM
 | COc1cc2c(cc1Nc1ncc(Cl)c(Nc3ccc(OS(=O)(=O)F)cc3P(C)(C)=O)n1)CN(C)C(C)(C)C2 [Example 25, 4-((5-Chloro-2-((6-methoxy-2,3,3-trimethyl-1,2,3,4-tetrahydroisoquinolin-7-yl)amino)pyrimidin-4-yl)amino)-3-(dimethylphosphoryl)phenyl sulfofluoridate dihydrochloride] |  |  |  | 85.9% | 90.7% | < 50 nM
 | Cl.Cl.[2H]C([2H])([2H])Oc1cc2c(cc1Nc1ncc(Cl)c(Nc3ccc(OS(=O)(=O)F)cc3P(C)(C)=O)n1)CN(C)CC2 [Example 5, 4-((5-Chloro-2-((6-(methoxy-d3)-2-methyl-1,2,3,4-tetrahydroisoquinolin-7-yl)amino)pyrimidin-4-yl)amino)-3-(dimethylphosphoryl)phenyl sulfurofluoridate dihydrochloride] |  |  |  | 78.1% | 82.5% | < 50 nM
 | COc1cc2c(cc1Nc1ncc(Cl)c(Nc3ccc(OS(=O)(=O)F)cc3P(C)(C)=O)n1)CNCC2 [Example 38, 4-((5-Chloro-2-((6-methoxy-1,2,3,4-tetrahydroisoquinolin-7-yl)amino)pyrimidin-4-yl)amino)-3-(dimethylphosphoryl)phenylsulfofluoridate dihydrochloride] |  |  |  | 84.5% | 85.7% | < 50 nM
> 7.30 | COc1cc2c(cc1Nc1ncc(Cl)c(Nc3ccc(O[C@H]4CCOC4)cc3P(C)(C)=O)n1)CN(C)CC2 [Example 48, (S)-(2-((5-Chloro-2-((6-methoxy-2-methyl-1,2,3,4-tetrahydroisoquinolin-7-yl)amino)pyrimidin-4-yl)amino)-5-((tetrahydrofuran-3-yl)oxy)phenyl)dimethylphosphineoxide] |  |  |  | 84.2% | 81.4% | 
 | CN1CCc2cc(F)c(Nc3ncc(Cl)c(Nc4ccc(OS(=O)(=O)F)cc4P(C)(C)=O)n3)cc2C1 [Example 26, 4-((5-Chloro-2-((6-fluoro-2-methyl-1,2,3,4-tetrahydroisoquinolin-7-yl)amino)pyrimidin-4-yl)amino)-3-(dimethylphosphoryl)phenyl sulfofluoridate dihydrochloride] |  |  |  | 75.8% | 76.5% | < 50 nM
> 7.30 | COc1cc2c(cc1Nc1ncc(Cl)c(Nc3ccc(C(=O)N(C)CCF)cc3P(C)(C)=O)n1)CN(C)CC2 [Example 52, 4-((5-Chloro-2-((6-methoxy-2-methyl-1,2,3,4-tetrahydroisoquinolin-7-yl)amino)pyrimidin-4-yl)amino)-3-(dimethylphosphoryl)-N-(2-fluoroethyl)-N-methyl benzamide] |  |  |  | 88.2% | 85.5% | 
> 7.30 | COc1cc2c(cc1Nc1ncc(Cl)c(Nc3ccc(C(F)F)cc3P(C)(C)=O)n1)CN(C)CC2 [Example 54, (2-((5-Chloro-2-((6-methoxy-2-methyl-1,2,3,4-tetrahydroisoquinolin-7-yl)amino)pyrimidin-4-yl)amino)-5-(difluoromethyl)phenyl)dimethylphosphine oxide] |  |  |  | 93.4% | 93.7% | 
> 7.30 | COc1cc2c(cc1Nc1ncc(Cl)c(Nc3ccc(O[C@@H]4CCOC4)cc3P(C)(C)=O)n1)CN(C)CC2 [Example 49, (R)-(2-((5-Chloro-2-((6-methoxy-2-methyl-1,2,3,4-tetrahydroisoquinolin-7-yl)amino)pyrimidin-4-yl)amino)-5-((tetrahydrofuran-3-yl)oxy)phenyl)dimethyl phosphine oxide] |  |  |  | 94.3% | 91.7% | 
 | [2H]C([2H])([2H])Oc1cc2c(cc1Nc1ncc(Cl)c(Nc3ccc(OS(=O)(=O)F)cc3P(C)(C)=O)n1)CN(C([2H])([2H])[2H])CC2 [Example 6, 4-((5-Chloro-2-((6-methoxy-d3)-2-(methyl-d3)-1,2,3,4-tetrahydroisoquinolin-7-yl)amino)pyrimidin-4-yl)amino)-3-(dimethylphosphoryl)phenyl sulfurofluoridate dihydrochloride] |  |  |  | 80% | 82% | < 50 nM
> 7.30 | COc1cc2c(cc1Nc1ncc(Cl)c(Nc3ccc(C(F)(F)F)cc3P(C)(C)=O)n1)CN(C)CC2 [Example 55, (2-((5-Chloro-2-((6-methoxy-2-methyl-1,2,3,4-tetrahydroisoquinolin-7-yl)amino)pyrimidin-4-yl)amino)-5-(trifluoromethyl)phenyl) dimethylphosphine oxide] |  |  |  | 94.6% | 95.3% | 
 | COc1cc2c(cc1Nc1ncc(Cl)c(Nc3cccc(OS(=O)(=O)F)c3P(C)(C)=O)n1)CN(C)CC2 [Example 19, 3-((5-Chloro-2-((6-methoxy-2-methyl-1,2,3,4-tetrahydroisoquinolin-7-yl)amino)pyrimidin-4-yl)amino)-2-(dimethylphosphoryl) phenylsulfofluoridate dihydrochloride] |  |  |  | 76.6% | 78.2% | < 50 nM
 | COc1cc2c(cc1Nc1ncc(Cl)c(Nc3cc(OS(=O)(=O)F)ccc3P(C)(C)=O)n1)C(C)N(C)CC2 (single isomer, unassigned; isomer 2) [Example 32, 3-((5-Chloro-2-((6-methoxy-1,2-dimethyl-1,2,3,4-tetrahydroisoquinolin-7-yl)amino)pyrimidin-4-yl)amino)-4-(dimethylphosphoryl)phenyl sulfofluoridate dihydrochloride (Isomer 2)] | > 7.30 | 84.51% | 89.25% |  |  | 
> 7.30 | COc1cc2c(cc1Nc1ncc(Cl)c(Nc3ccc(O)cc3P(C)(C)=O)n1)CN(C)CC2 [Example 1, (2-((5-Chloro-2-((6-methoxy-2-methyl-1,2,3,4-tetrahydroisoquinolin-7-yl)amino)pyrimidin-4-yl)amino)-5-hydroxyphenyl)dimethylphosphineoxide dihydrochloride] |  |  |  | 87.2% | 86.5% | 
 | CN1CCc2cc(OC(F)F)c(Nc3ncc(Cl)c(Nc4ccc(OS(=O)(=O)F)cc4P(C)(C)=O)n3)cc2C1 [Example 10, 4-((5-Chloro-2-((6-(difluoromethoxy)-2-methyl-1,2,3,4-tetrahydroqisoquinolin-7-yl)amino)pyrimidin-4-yl)amino)-3-(dimethylphosphoryl)phenyl sulfurofluoridate dihydrochloride] |  |  |  | 92.3% | 89% | < 50 nM
 | COc1cc2c(cc1Nc1ncc(Cl)c(Nc3ccc(OS(=O)(=O)F)cc3P(C)(C)=O)n1)CN(C)C(C)C2 (single isomer, unassigned; isomer 2) [Example 34, 4-((5-Chloro-2-((6-methoxy-2,3-dimethyl-1,2,3,4-tetrahydroisoquinolin-7-yl)amino)pyrimidin-4-yl)amino)-3-(dimethylphosphoryl)phenyl sulfofluoridate dihydrochloride (Isomer 2)] | > 7.30 | 84.26% | 86.64% |  |  | 
 | COc1cc2c(cc1Nc1ncc(Cl)c(Nc3ccc(OS(=O)(=O)F)cc3P(C)(C)=O)n1)CN(CCF)CC2 [Example 13, 4-((5-Chloro-2-((2-(2-fluoroethyl)-6-methoxy-1,2,3,4-tetrahydroisoquinolin-7-yl)amino)pyrimidin-4-yl)amino)-3-(dimethylphos-phoryl)phenylsulfofluoridate dihydrochloride] |  |  |  | 79.7% | 81% | < 50 nM
 | COc1cc2c(cc1Nc1ncc(Cl)c(Nc3ccc(N(C)S(=O)(=O)F)cc3P(C)(C)=O)n1)CN(C)CC2 [Example 43, 4-((5-Chloro-2-((6-methoxy-2-methyl-1,2,3,4-tetrahydroisoquinolin-7-yl)amino)pyrimidin-4-yl)amino)-3-(dimethylphosphoryl)phenyl)(methyl)sulfamoylfluoride dihydrochloride] |  |  |  | 80% | 80.5% | < 50 nM
